These results are taken from patent US10537558B2 (Bantam Pharmaceutical, LLC, priority 2015, dated 2020).

SMILES strings stand for the structures. Read-outs that look alike come from different tables or passages of the source.

For this experiment, the system named is BJAB cells. Nature of the experiment: BJAB cell proliferation (Cell Titer Glo). Format: cell-based. A digest of the protocol: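 EC50 values come from non-linear regression of luminescence (Cell Titer Glo), expressed relative to untreated wells. BJAB cells were incubated roughly 72 h at 37 °C with serial compound dilutions carrying 0.1% final DMSO.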
On the technique in general: ATP-based viability assays read luminescence as a measure of living cells.

One may read the EC50 as the midpoint of the concentration-response curve. In the case of `Cc1nn(-c2nc(-c3cnn(CC(F)(F)F)c3)c(SC(C)C)s2)c(C(=O)O)c1-c1cccc(F)c1` [Compound 259, 4-(3-fluorophenyl)-1-(5-(isopropylthio)-4-(1-(2,2,2-trifluoroethyl)-1H-pyrazol-4-yl)thiazol-2-yl)-3-methyl-1H-pyrazole-5-carboxylic acid], where the note is “Homo sapiens, read-out: EC50”, the EC50 lay within 10 to 25 µM.

Turning to `Cc1nn(-c2nc(-c3ccc(Cl)c(Cl)c3)c(SC3CCCCC3)s2)c(C(=O)O)c1Cc1ccccc1[N+](=O)[O-]` [Compound 19, 1-(5-(cyclohexylthio)-4-(3,4-dichlorophenyl)thiazol-2-yl)-3-methyl-4-(2-nitrobenzyl)-1H-pyrazole-5-carboxylic Acid], the concentration for a half-maximal effect (EC50) (Homo sapiens, read-out: EC50) was in the range of 10 to 25 µM.

Regarding `COc1ccc(-c2nc(-n3nc(C)c(-c4cccc(F)c4)c3C(=O)O)sc2SC(C)C)cc1` [Compound 187, 4-(3-fluorophenyl)-1-(5-(isopropylthio)-4-(4-methoxyphenyl)thiazol-2-yl)-3-methyl-1H-pyrazole-5-carboxylic Acid], where the note is “Homo sapiens, read-out: EC50”, the concentration giving a half-maximal response (EC50) is 10 to 25 µM.

Regarding `Cc1nn(-c2nc(-c3ccc(Cl)c(Cl)c3)c(SC(C)C)s2)c(C(=O)O)c1-c1cccc(Cl)c1` [Compound 112, 4-(3-chlorophenyl)-1-(4-(3,4-dichlorophenyl)-5-(isopropylthio)thiazol-2-yl)-3-methyl-1H-pyrazole-5-carboxylic Acid], the 50% effective concentration (EC50) (Homo sapiens, read-out: EC50) fell in the range of 1 to 5 µM.

As to `Cc1cc(-c2c(C)nn(-c3nc(-c4ccc(Cl)c(Cl)c4)c(SC(C)C)s3)c2C(=O)O)cc(C)n1` [Compound 23, 1-(4-(3,4-dichlorophenyl)-5-(isopropylthio)thiazol-2-yl)-4-(2,6-dimethylpyridin-4-yl)-3-methyl-1H-pyrazole-5-carboxylic Acid], the EC50 (Homo sapiens, read-out: EC50) was less than 1 µM.

As for `Cc1nn(-c2nc(-c3ccc(Cl)c(Cl)c3)cs2)c(C(=O)O)c1Cc1ccccc1NS(C)(=O)=O` [Compound 8, 1-(4-(3,4-dichlorophenyl)thiazol-2-yl)-3-methyl-4-(2-(methylsulfonamido)benzyl)-1H-pyrazole-5-carboxylic acid], the EC50 (Homo sapiens, read-out: EC50) was greater than 80 µM.

In the case of `Cc1nn(-c2nc(-c3cccc(Cl)c3)c(SC(C)C)s2)c(C(=O)O)c1-c1cccc(F)c1` [Compound 176, 1-(4-(3-chlorophenyl)-5-(isopropylthio)thiazol-2-yl)-4-(3-fluorophenyl)-3-methyl-1H-pyrazole-5-carboxylic Acid], the 50% effective concentration (EC50) (Homo sapiens, read-out: EC50) is 5 to 10 µM.

On to `COc1cccc(-c2nc(-n3nc(C)c(Cc4ccccc4[N+](=O)[O-])c3C(=O)O)sc2SC(C)C)c1` [Compound 103, 1-(5-(isopropylthio)-4-(3-methoxyphenyl)thiazol-2-yl)-3-methyl-4-(2-nitrobenzyl)-1H-pyrazole-5-carboxylic Acid], for which, for the setting “Homo sapiens, read-out: EC50”, the EC50 is greater than 80 µM.

`COCCOc1cc(-c2c(C)nn(-c3nc(-c4ccc(Cl)c(Cl)c4)c(SC(C)C)s3)c2C(=O)O)cc(C)n1` [Compound 181, 1-(4-(3,4-dichlorophenyl)-5-(isopropylthio)thiazol-2-yl)-4-(2-(2-methoxyethoxy)-6-methylpyridin-4-yl)-3-methyl-1H-pyrazole-5-carboxylic Acid]: the EC50 (Homo sapiens, read-out: EC50) fell in the range of 10 to 25 µM.

On to `Cc1nn(-c2nc(-c3ccc(Cl)c(Cl)c3)c(F)s2)c(C(=O)O)c1-c1cccc(F)c1` [Compound 227, 1-(4-(3,4-dichlorophenyl)-5-fluorothiazol-2-yl)-4-(3-fluorophenyl)-3-methyl-1H-pyrazole-5-carboxylic acid], for which the half-maximal effective concentration (EC50) (Homo sapiens, read-out: EC50) was 10 to 25 µM.

Regarding `Cc1cc(C(=O)O)n(-c2nc(-c3ccc(Cl)c(Cl)c3)c(SC(C)C)s2)n1` [Compound 16, 1-(4-(3,4-dichlorophenyl)-5-(isopropylthio)thiazol-2-yl)-3-methyl-1H-pyrazole-5-carboxylic Acid], the 50% effective concentration (EC50) (Homo sapiens, read-out: EC50) is 50 to 100 µM.

For the compound `Cc1nn(-c2nc(C3=CCCC3)c(SC(C)C)s2)c(C(=O)O)c1-c1cccc(F)c1` [Compound 184, 1-(4-(cyclopent-1-en-1-yl)-5-(isopropylthio)thiazol-2-yl)-4-(3-fluorophenyl)-3-methyl-1H-pyrazole-5-carboxylic acid], where the note is “Homo sapiens, read-out: EC50”, the EC50 was in the range of 10 to 25 µM.

In the case of `Cc1ccccc1-c1c(C)nn(-c2nc(-c3ccc(Cl)c(Cl)c3)c(SC(C)C)s2)c1C(=O)O` [Compound 117, 1-(4-(3,4-dichlorophenyl)-5-(isopropylthio)thiazol-2-yl)-3-methyl-4-o-tolyl-1H-pyrazole-5-carboxylic acid], for the setting “Homo sapiens, read-out: EC50”, the EC50 was in the range of 5 to 10 µM.

With `Cc1nn(-c2nc(-c3ccc(Cl)c(Cl)c3)c(SC(C)C)s2)c(C(=O)NS(C)(=O)=O)c1-c1cc(C(F)(F)F)cc(C(F)(F)F)c1` [Compound 148, 4-(3,5-bis(trifluoromethyl)phenyl)-1-(4-(3,4-dichlorophenyl)-5-(isopropylthio)thiazol-2-yl)-3-methyl-N-(methylsulfonyl)-1H-pyrazole-5-carboxamide], the EC50 (Homo sapiens, read-out: EC50) is greater than 40 µM.

Take `Cc1cc(-c2c(C)nn(-c3nc(-c4ccccc4C)c(SC(C)C)s3)c2C(=O)O)cc(C)n1` [Compound 42, 4-(2,6-dimethylpyridin-4-yl)-1-(5-(isopropylthio)-4-o-tolylthiazol-2-yl)-3-methyl-1H-pyrazole-5-carboxylic acid]: under “Homo sapiens, read-out: EC50”, the half-maximal effective concentration (EC50) lay in the range of 1 to 5 µM.

Regarding `Cc1nn(-c2nc(-c3ccc(C#N)cc3)c(SC(C)C)s2)c(C(=O)O)c1-c1cccc(F)c1` [Compound 213, 1-(4-(4-cyanophenyl)-5-(isopropylthio)thiazol-2-yl)-4-(3-fluorophenyl)-3-methyl-1H-pyrazole-5-carboxylic acid], the EC50 result is recorded as “C-”.

`Cc1cc(-c2c(C)nn(-c3nc(-c4ccc(C(F)(F)F)cc4)c(SC(C)C)s3)c2C(=O)O)ccc1F` [Compound 236, 4-(4-fluoro-3-methylphenyl)-1-(5-(isopropylthio)-4-(4-(trifluoromethyl)phenyl)thiazol-2-yl)-3-methyl-1H-pyrazole-5-carboxylic Acid]: the concentration for a half-maximal effect (EC50) (Homo sapiens, read-out: EC50) fell in the range of 1 to 5 µM.

`Cc1cc(-c2c(C)nn(-c3nc(C#Cc4ccccc4)c(SC(C)C)s3)c2C(=O)O)cc(C)n1` [Compound 162, 4-(2,6-dimethylpyridin-4-yl)-1-(5-(isopropylthio)-4-(phenylethynyl)thiazol-2-yl)-3-methyl-1H-pyrazole-5-carboxylic acid]: the EC50 (Homo sapiens, read-out: EC50) was 5 to 10 µM.

On to `Cc1nn(-c2nc(-c3ccc(Cl)c(Cl)c3)c(SC(C)C)s2)c(C(=O)O)c1Cc1ccccc1[N+](=O)[O-]` [Compound 6, 1-(4-(3,4-dichlorophenyl)-5-(isopropylthio)thiazol-2-yl)-3-methyl-4-(2-nitrobenzyl)-1H-pyrazole-5-carboxylic acid], for which, for the setting “Homo sapiens, read-out: EC50”, the EC50 was in the range of 25 to 50 µM.

As for `Cc1nn(-c2nc(-c3cnc(C(F)(F)F)nc3)c(SC(C)C)s2)c(C(=O)O)c1-c1cccc(F)c1` [Compound 242, 4-(3-fluorophenyl)-1-(5-(isopropylthio)-4-(2-(trifluoromethyl)pyrimidin-5-yl)thiazol-2-yl)-3-methyl-1H-pyrazole-5-carboxylic Acid], the half-maximal effective concentration (EC50) (Homo sapiens, read-out: EC50) was 5 to 10 µM.

As to `Cc1cc(C)nc(-c2c(C)nn(-c3nc(-c4ccc(Cl)c(Cl)c4)c(SC(C)C)s3)c2C(=O)O)n1` [Compound 74, 1-(4-(3,4-dichlorophenyl)-5-(isopropylthio)thiazol-2-yl)-4-(4,6-dimethylpyrimidin-2-yl)-3-methyl-1H-pyrazole-5-carboxylic acid], the half-maximal effective concentration (EC50) (Homo sapiens, read-out: EC50) lay within 25 to 50 µM.

As to `Cc1cc(-c2c(C)nn(-c3nc(-c4ccc(Cl)c(Cl)c4)c(SC(C)C)s3)c2C(=O)O)sn1` [Compound 92, 1-(4-(3,4-dichlorophenyl)-5-(isopropylthio)thiazol-2-yl)-3-methyl-4-(3-methylisothiazol-5-yl)-1H-pyrazole-5-carboxylic Acid], the EC50 (Homo sapiens, read-out: EC50) fell in the range of 1 to 5 µM.

On to `Cc1ccc(-c2nc(-n3nc(C)c(-c4cccc(F)c4)c3C(=O)O)sc2SC(C)C)cc1Cl` [Compound 207, 1-(4-(3-chloro-4-methylphenyl)-5-(isopropylthio)thiazol-2-yl)-4-(3-fluorophenyl)-3-methyl-1H-pyrazole-5-carboxylic Acid], for which the concentration for a half-maximal effect (EC50) (Homo sapiens, read-out: EC50) was in the range of 5 to 10 µM.

With `Cc1nn(-c2nc(-c3ccc(Cl)c(Cl)c3)c(SC(C)C)s2)c(C(=O)O)c1-c1ccc(CO)cc1` [Compound 49, 1-(4-(3,4-dichlorophenyl)-5-(isopropylthio)thiazol-2-yl)-4-(4-(hydroxymethyl)phenyl)-3-methyl-1H-pyrazole-5-carboxylic acid], the EC50 (Homo sapiens, read-out: EC50) is greater than 50 µM.

For the compound `Cc1cc(-c2c(C)nn(-c3nc(Cc4ccccc4)c(SC(C)C)s3)c2C(=O)O)cc(C)n1` [Compound 163, 1-(4-benzyl-5-(isopropylthio)thiazol-2-yl)-4-(2,6-dimethylpyridin-4-yl)-3-methyl-1H-pyrazole-5-carboxylic acid], for the setting “Homo sapiens, read-out: EC50”, the EC50 was in the range of 10 to 25 µM.

In the case of `Cc1nn(-c2nc(-c3ccccc3)c(SC(C)C)s2)c(C(=O)O)c1-c1cccc(F)c1` [Compound 202, 4-(3-fluorophenyl)-1-(5-(isopropylthio)-4-phenylthiazol-2-yl)-3-methyl-1H-pyrazole-5-carboxylic acid], the EC50 (Homo sapiens, read-out: EC50) is 10 to 25 µM.

With `Cc1cc(-c2c(C)nn(-c3nc(-c4ccc(Cl)c(Cl)c4)c(SC(C)C)s3)c2C(=O)O)cc(O[C@H]2CCOC2)n1` [Compound 182, (S)-1-(4-(3,4-dichlorophenyl)-5-(isopropylthio)thiazol-2-yl)-3-methyl-4-(2-methyl-6-((tetrahydrofuran-3-yl)oxy)pyridin-4-yl)-1H-pyrazole-5-carboxylic acid], under “Homo sapiens, read-out: EC50”, the EC50 was in the range of 10 to 25 µM.

For the compound `COC(=O)c1c(Cc2ccccc2NS(C)(=O)=O)c(C)nn1-c1nc(-c2ccc(Cl)c(Cl)c2)cs1` [Compound 7, methyl 1-(4-(3,4-dichlorophenyl)thiazol-2-yl)-3-methyl-4-(2-(methylsulfonamido)benzyl)-1H-pyrazole-5-carboxylate], under “Homo sapiens, read-out: EC50”, the EC50 was greater than 80 µM.

For `Cc1cc(-c2c(C)nn(-c3nc(-c4ccc(C(F)(F)F)cc4)c(SC(C)C)s3)c2C)cc(C)n1` [Compound 232, 2-(4-(2,6-dimethylpyridin-4-yl)-3,5-dimethyl-1H-pyrazol-1-yl)-5-(isopropylthio)-4-(4-(trifluoromethyl)phenyl) thiazole], the concentration for a half-maximal effect (EC50) (Homo sapiens, read-out: EC50) lay within 25 to 50 µM.
